Measurements published in US20110136229A1, “Novel lectin” (National Taiwan University, priority 2009, published 2011).
In brackets after ≈: the same amount, converted by molar mass.

What was measured:
lectin of Carica papaya = assay: Analysis of sugar-binding specificity (inhibition of lectin-induced hemagglutination by sugars, IC50); assay type: cell-based; conditions: lowest sugar concentration inhibiting 50% agglutinating activity; peak 1 diluted to HA titer 32
Procedure: The N-acetylgalactosamine, galactose, lactose, mannose, N-acetylglucosamine solutions were respectively added to the same volume of the samples, and the final sugar concentrations of the solutions were 3.1, 6.3, 12.5, 25, 50 and 100 mM, respectively. Upon well mixing, 50 μL of the mixture of the sample and the sugar solution was added to 50 μL of the human type O erythrocyte suspension (2×10^8 cells/mL) in the 96-well plate. Then, the 96-well plate was placed at 37 °C for 30 minutes, and the inhibition of the hemagglutination was observed. IC50 was defined as the lowest sugar concentration capable of inhibiting 50% agglutinating activity, wherein the inhibition area of the agglutination was at least half area of the bottom of the well.
In this embodiment, the fraction of the peak 1 (HA titer being 512) was diluted for 16 folds (HA titer being 32) for the analysis.

CPL = assay: Hemagglutination inhibition assay on CPL by various sugars (MIC); assay type: cell-based, Carica papaya; conditions: minimum inhibitory concentration for inhibition of 16 hemagglutination titers, 2% human erythrocytes
Procedure: The HA titer of the purified lectin in the present invention was 512. The purified lectin was diluted to have the HA titer as 16, and then mixed with various sugar solution to test hemagglutination inhibition on CPL by various sugars. The results were illustrated in Table 3, wherein MIC indicated minimum inhibitory concentrations required for inhibition of 16 hemagglutination titers of the lectin of the present invention against 2% human 0-type erythrocytes, and all sugars are of D configuration.

[1] = tested on: CPL (Carica papaya lectin), purified lectin from papaya seeds; assay: Interaction between CPL and immobilized GalNAc residues by surface plasmon resonance; assay type: binding; conditions: GalNAc-PAA-biotin polymers immobilized on SA chip, CPL 1.8-30 nM as analyte, Biacore T100
Procedure: (3) Interaction Between CPL and Immobilized GalNAc Residues by Surface Plasmon Resonance
GalNAc-PAA-biotin polymers were immobilized to a sensor chip modified with streptavidin (SA). The regeneration solution for the chip was 50 mM phosphate saline buffer (pH 7.0) containing 200 mM GalNAc. The concentrations of the purified CPL were adjusted to 30, 15, 7.5, 3.7 and 1.8 nM to be analytes, then subjected to the sensor chip immobilized with GalNAc-PAA-biotin polymers, and analyzed by Biacore T100 surface plasmon resonance analyzing machine. The obtained sensorgrams were analyzed and calculated by BIACORE T100 Evaluation software 2.0. After CPL was combined with GalNAc ligand on the sensor chip, the dissociation curve declined gradually. In other words, CPL had great affinity to GalNAc. […] (4) Immunomodulatory Effect of CPL on the Cytotoxicity and Induction of Cytokine Production in Jurkat T Lymphocytes

Jurkat T lymphocytes [2] = assay type: cell-based, human; conditions: 1 μg/mL, 24 hours
Procedure: […] After incubation for 24 hours, cell viability was measured by cell proliferation reagent, WST-1 (4-[3-(4-iodophenyl)-2-(4-nitrophenyl)-2H-5-tetrazolio]-1,3-benzene disulfonate), and the cytokine content in the incubation medium was analyzed. […] 24 μg/mL of CPL had inhibition effect on Jurkat T lymphocytes similar to that of 10 μg/mL of SBA, i.e., inhibiting 30% of viability after 24-hour incubation.

Jurkat T lymphocytes [3] = assay: IL-2 cytokine production in Jurkat T lymphocytes; assay type: cell-based, human; conditions: 10 μg/mL, 24 hr
Procedure: The purified CPL was added to respective 1.8 mL of Jurkat T lymphocytes (2×10^6), wherein the final concentrations of CPL were 24, 12, 6 and 3 μg/mL, respectively. After incubation for 24 hours, cell viability was measured by cell proliferation reagent, WST-1 (4-[3-(4-iodophenyl)-2-(4-nitrophenyl)-2H-5-tetrazolio]-1,3-benzene disulfonate), and the cytokine content in the incubation medium was analyzed. […] 24 μg/mL of CPL had inhibition effect on Jurkat T lymphocytes similar to that of 10 μg/mL of SBA, i.e., inhibiting 30% of viability after 24-hour incubation.
In the control group of Jurkat T lymphocyte without lectin added therein, the concentration of IL-2 upon 24 hr incubation was approximately or lower than 10 pg/mL. However, upon incubation with lectin, Jurkat T lymphocytes were induced to secrete IL-2 into the culture medium. The concentrations of IL-2 secreted from Jurkat T lymphocytes incubated with SBA and PHA (10 μg/mL) were 377±1 and 308±7 pg/mL, respectively. After Jurkat T lymphocytes were incubated with various concentrations of CPL for 24 hours, the concentration of IL-2 in the medium was proportional to the concentration of CPL. In the medium added with 3 μg/mL of CPL, the concentration of IL-2 was 9.7 pg/mL, which had no significant difference from the control group. In the medium added with 6 μg/mL of CPL, the concentration of IL-2 was 44.5 pg/mL. […]

CC(=O)N[C@H]1C(O)O[C@H](CO)[C@@H](O)[C@@H]1O (stereo partly shown) [N-acetylglucosamine]
IC50 (lectin of Carica papaya): > 100 mM
MIC (CPL; listed as GlcNAc): >100 mM

CC(=O)N[C@H]1C(O)O[C@H](CO)[C@H](O)[C@@H]1O (stereo partly shown) [N-acetylgalactosamine]
IC50 (lectin of Carica papaya): 6.3 mM
MIC (CPL): 6.3 mM (≈ 1.39 mg/mL)
combination rate (Kon) [1]: 5.5×10^4 1/MS
dissociation rate (Koff) [1]: 3×10^−4 1/S
Kd ([1]; read-out: dissociation constant (Kd)): ~5.5 nM

O=C[C@H](O)[C@@H](O)[C@@H](O)[C@H](O)CO [Galactose]
IC50 (lectin of Carica papaya): > 100 mM
MIC (CPL): >100 mM

SBA: soybean agglutinin, which specifically binds to GalNAc
effect on viability (Jurkat T lymphocytes [2]): no significant effect
concentration of IL-2 in medium (Jurkat T lymphocytes [3]): 377 ± 1 pg/mL

OC[C@H]1O[C@@H](O[C@H]2[C@H](O)[C@@H](O)C(O)O[C@@H]2CO)[C@H](O)[C@@H](O)[C@H]1O (stereo partly shown) [Lactose]
IC50 (lectin of Carica papaya): 6.3 mM
MIC (CPL): 6.3 mM (≈ 2.16 mg/mL)
